Results from article PMC12988607 (BMC Pharmacology & Toxicology, 2026).
Read-outs that look alike come from different tables or passages of the source.

Columns and labels:
[1] = format: in vivo, healthy Chinese volunteers; settings: for AUC(0-t): AUC0-t; for AUC(0-t) / AUC(0-inf) / Cmax / Tmax: geometric mean; for AUC(0-inf): AUC0-∞; for half-life: t1/2, geometric mean
[2] = tested on: healthy Chinese volunteers; experiment: Urine PD parameters; format: in vivo; settings: for urine-GLU: 0~4 h after 10 mg EMPA, p < 0.001
[3] = tested on: healthy Chinese volunteers; experiment: Blood PD parameters; format: in vivo; settings: p < 0.05; for blood-GLU / insulin: fasting group; for blood-GLU: before EMPA (5.1 ± 0.4) mmol/L; for insulin: before EMPA (7.0 ± 3.7) mU/L
[4] = tested on: healthy Chinese volunteers; experiment: RAAS-related parameters; format: in vivo; settings: for Ang II: after EMPA
[5] = cited from earlier work
[6] = within 3 hours; cited from earlier work
[7] = Fed (high-fat diet), single 10 mg EMPA
[8] = human, plasma, oral, 10 mg, Fasting, single 10 mg EMPA
[9] = human, plasma, oral, 10 mg, Fed (high-fat diet), single 10 mg EMPA

Plasma concentrations Fasting/fed ([1]; 0.5 h after 10 mg EMPA): 3.00
Plasma concentrations Fasting/fed ([1]; 1 h after 10 mg EMPA): 2.27
Plasma concentrations Fasting/fed ([1]; 1.25 h after 10 mg EMPA): 1.92
Plasma concentrations Fasting/fed ([1]; 1.5 h after 10 mg EMPA): 1.71
Plasma concentrations Fasting/fed ([1]; 1.75 h after 10 mg EMPA): 1.68
Plasma concentrations Fasting/fed ([1]; 2 h after 10 mg EMPA): 1.61
Plasma concentrations Fasting/fed ([1]; 2.25 h after 10 mg EMPA): 1.62
Plasma concentrations Fasting/fed ([1]; 2.75 h after 10 mg EMPA): 1.55
Plasma concentrations Fasting/fed ([1]; 3 h after 10 mg EMPA): 1.55
Plasma concentrations Fasting/fed ([1]; 4 h after 10 mg EMPA): 1.40
Plasma concentrations Fasting/fed ([1]; 6 h after 10 mg EMPA): 1.36
Plasma concentrations Fasting/fed ([1]; 8 h after 10 mg EMPA): 1.30
Plasma concentrations Fasting/fed ([1]; 10 h after 10 mg EMPA): 1.24
Plasma concentrations Fasting/fed ([1]; 12 h after 10 mg EMPA): 1.21
Plasma concentrations Fasting/fed ([1]; 24 h after 10 mg EMPA): 1.09
Plasma concentrations Fasting/fed ([1]; 36 h after 10 mg EMPA): 1.09
Plasma concentrations Fasting/fed ([1]; 48 h after 10 mg EMPA): 1.03
AUC_%Extrap, geometric mean ([1]; Fasting, single 10 mg EMPA): 1.80%
AUC_%Extrap, geometric mean [1, 7]: 2.57%
λz, geometric mean [1, 7]: 0.08 h⁻¹
k el ([1]; human, plasma, oral, 10 mg): 2.22e-05 s⁻¹
AUC(0-t) [1, 8]: 1310 ng·h/mL
AUC(0-t) [1, 9]: 951 ng·h/mL
AUC(0-inf) [1, 8]: 1330 ng·h/mL
AUC(0-inf) [1, 9]: 978 ng·h/mL
Cmax [1, 8]: 187 ng/mL
Cmax [1, 9]: 113 ng/mL
concentration at 1 h ([1]; human, plasma, oral, 10 mg, Plasma concentrations, Fasting (n = 56), 1 h after 10 mg EMPA): 166 ± 60.6 ng/mL
concentration at 2 h ([1]; human, plasma, oral, 10 mg, Plasma concentrations, Fasting (n = 56), 2 h after 10 mg EMPA): 152 ± 27.3 ng/mL
concentration at 3 h ([1]; human, plasma, oral, 10 mg, Plasma concentrations, Fasting (n = 56), 3 h after 10 mg EMPA): 123 ± 17.9 ng/mL
concentration at 4 h ([1]; human, plasma, oral, 10 mg, Plasma concentrations, Fasting (n = 56), 4 h after 10 mg EMPA): 104 ± 16.4 ng/mL
concentration at 6 h ([1]; human, plasma, oral, 10 mg, Plasma concentrations, Fasting (n = 56), 6 h after 10 mg EMPA): 72 ± 12.5 ng/mL
concentration at 8 h ([1]; human, plasma, oral, 10 mg, Plasma concentrations, Fasting (n = 56), 8 h after 10 mg EMPA): 52.6 ± 9.1 ng/mL
concentration at 10 h ([1]; human, plasma, oral, 10 mg, Plasma concentrations, Fasting (n = 56), 10 h after 10 mg EMPA): 40.4 ± 8.2 ng/mL
concentration at 12 h ([1]; human, plasma, oral, 10 mg, Plasma concentrations, Fasting (n = 56), 12 h after 10 mg EMPA): 30.7 ± 6.5 ng/mL
concentration at 24 h ([1]; human, plasma, oral, 10 mg, Plasma concentrations, Fasting (n = 56), 24 h after 10 mg EMPA): 10.1 ± 3 ng/mL
concentration at 36 h ([1]; human, plasma, oral, 10 mg, Plasma concentrations, Fasting (n = 56), 36 h after 10 mg EMPA): 3.5 ± 1.4 ng/mL
concentration at 48 h ([1]; human, plasma, oral, 10 mg, Plasma concentrations, Fasting (n = 56), 48 h after 10 mg EMPA): 2.2 ± 0.9 ng/mL
concentration at 0.5 h ([1]; human, plasma, oral, 10 mg, Plasma concentrations, Fed (n = 58), high-fat diet, 0.5 h after 10 mg EMPA): 34.2 ± 31 ng/mL
concentration at 1 h ([1]; human, plasma, oral, 10 mg, Plasma concentrations, Fed (n = 58), high-fat diet, 1 h after 10 mg EMPA): 72.9 ± 49.5 ng/mL
concentration at 1.25 h ([1]; human, plasma, oral, 10 mg, Plasma concentrations, Fed (n = 58), high-fat diet, 1.25 h after 10 mg EMPA): 87.4 ± 39.2 ng/mL
concentration at 1.5 h ([1]; human, plasma, oral, 10 mg, Plasma concentrations, Fed (n = 58), high-fat diet, 1.5 h after 10 mg EMPA): 95.7 ± 33.7 ng/mL
concentration at 1.75 h ([1]; human, plasma, oral, 10 mg, Plasma concentrations, Fed (n = 58), high-fat diet, 1.75 h after 10 mg EMPA): 94.1 ± 28.1 ng/mL
concentration at 2 h ([1]; human, plasma, oral, 10 mg, Plasma concentrations, Fed (n = 58), high-fat diet, 2 h after 10 mg EMPA): 94.2 ± 26.3 ng/mL
concentration at 2.25 h ([1]; human, plasma, oral, 10 mg, Plasma concentrations, Fed (n = 58), high-fat diet, 2.25 h after 10 mg EMPA): 91.5 ± 22.6 ng/mL
concentration at 2.75 h ([1]; human, plasma, oral, 10 mg, Plasma concentrations, Fed (n = 58), high-fat diet, 2.75 h after 10 mg EMPA): 83.9 ± 16 ng/mL
concentration at 3 h ([1]; human, plasma, oral, 10 mg, Plasma concentrations, Fed (n = 58), high-fat diet, 3 h after 10 mg EMPA): 79.4 ± 15 ng/mL
concentration at 4 h ([1]; human, plasma, oral, 10 mg, Plasma concentrations, Fed (n = 58), high-fat diet, 4 h after 10 mg EMPA): 74.4 ± 11.1 ng/mL
concentration at 6 h ([1]; human, plasma, oral, 10 mg, Plasma concentrations, Fed (n = 58), high-fat diet, 6 h after 10 mg EMPA): 53.1 ± 8.8 ng/mL
concentration at 8 h ([1]; human, plasma, oral, 10 mg, Plasma concentrations, Fed (n = 58), high-fat diet, 8 h after 10 mg EMPA): 40.5 ± 7.6 ng/mL
concentration at 10 h ([1]; human, plasma, oral, 10 mg, Plasma concentrations, Fed (n = 58), high-fat diet, 10 h after 10 mg EMPA): 32.7 ± 6.7 ng/mL
concentration at 12 h ([1]; human, plasma, oral, 10 mg, Plasma concentrations, Fed (n = 58), high-fat diet, 12 h after 10 mg EMPA): 25.4 ± 4.9 ng/mL
concentration at 24 h ([1]; human, plasma, oral, 10 mg, Plasma concentrations, Fed (n = 58), high-fat diet, 24 h after 10 mg EMPA): 9.3 ± 1.8 ng/mL
concentration at 36 h ([1]; human, plasma, oral, 10 mg, Plasma concentrations, Fed (n = 58), high-fat diet, 36 h after 10 mg EMPA): 3.2 ± 1.2 ng/mL
concentration at 48 h ([1]; human, plasma, oral, 10 mg, Plasma concentrations, Fed (n = 58), high-fat diet, 48 h after 10 mg EMPA): 2.2 ± 0.8 ng/mL
Tmax [1, 8]: 1.31 h
Tmax [1, 9]: 1.67 h
half-life [1, 8]: 8.18 h
half-life [1, 9]: 8.34 h
Structure (SMILES): OC[C@H]1O[C@@H](c2ccc(Cl)c(Cc3ccc(O[C@H]4CCOC4)cc3)c2)[C@H](O)[C@@H](O)[C@@H]1O [EMPA, empagliflozin]
urine-GLU ([2]; fasting group (n = 19), before EMPA (0.3 ± 0.2) mmol/L): 70.9 ± 29.9 mmol/L
β2-MG ([2]; fasting group, urine after EMPA, before EMPA (0.148 ± 0.054) mg/L, p < 0.05): 0.080 ± 0.065 mg/L
α1-MG ([2]; fasting group, urine after EMPA, before EMPA (2.9 ± 1.7) mg/L, p < 0.05): 1.9 ± 1.8 mg/L
α1-MG level, after vs before EMPA ([2]; fed group (EMPA post-meal), urine): did not show a significant difference
urine-GLU ([2]; fed group (n = 23), before EMPA (0.3 ± 0.3) mmol/L): 89.6 ± 35.4 mmol/L
urine-UA ([2]; fed group, after 4 h of EMPA administration, comparison value (2223.8 ± 891.1) mmol/L, p < 0.05): 2751.5 ± 1018.1 mmol/L
β2-MG ([2]; fed group, urine after EMPA, before EMPA (0.145 ± 0.075) mg/L, p < 0.05): 0.094 ± 0.059 mg/L
blood-GLU ([3]; 2 h after EMPA): 4.8 ± 0.3 mmol/L
insulin ([3]; 2 h after EMPA): 5.0 ± 2.2 mU/L
blood-GLU ([3]; 4 h after EMPA): 4.7 ± 0.3 mmol/L
insulin ([3]; 4 h after EMPA): 4.7 ± 3.2 mU/L
BUN ([3]; fed group, 4 h after EMPA, before EMPA (4.4 ± 1.0) mmol/L): 5.5 ± 1.0 mmol/L
SCr ([3]; fed group, 4 h after EMPA, before EMPA (66.0 ± 8.4) mmol/L as printed): 71.5 ± 9.7 µmol/L
eGFR ([3]; fed group, 4 h after EMPA, before EMPA (141.6 ± 22.0)): 128.3 ± 20.7 ml/min/1.73 m^2
blood-UA ([3]; fed group, 4 h after EMPA, comparison value (369.2 ± 62.9) μmol/L): 342.6 ± 57.6 µmol/L
ALD levels, after vs before EMPA ([4]; fasting group): no significant differences
PRC ([4]; fasting group, 2 h after EMPA, before EMPA (37.3 ± 25.8) pg/mL, p < 0.05): 52.2 ± 28.2 pg/mL
PRC ([4]; fasting group, 4 h after EMPA, before EMPA (37.3 ± 25.8) pg/mL, p < 0.05): 51.5 ± 23.7 pg/mL
Ang II ([4]; fasting group, before EMPA (81.9 ± 9.9) pg/mL, p < 0.05): 88.2 ± 10.3 pg/mL
ALD levels, after vs before EMPA ([4]; fed group): no significant differences
PRC ([4]; fed group, 4 h after EMPA, before EMPA (32.5 ± 22.4) pg/mL, p = ns): 30.4 ± 18.9 pg/mL
Ang II ([4]; fed group, before EMPA (91.6 ± 26.7) pg/mL, p < 0.05): 82.6 ± 23.3 pg/mL
effect of a high-fat diet (HFD) on Cmax and AUC ([5]; 25 mg and 50 mg EMPA): reduce
bioavailability [5]: poor
time to reach Cmax [5]: 1.33 to 3.0 h
increase in urinary glucose excretion [6]: 27 times
